The source of these data is ChEMBL document CHEMBL3045962, “Synthesis and antitumor evaluation of some novel pyrrolizine derivatives” (Med Chem Res, 2012).

Structures are written as SMILES.

The test system of this experiment is MCF7. As to the kind of experiment: Cytotoxicity against Homo sapiens (human) MCF7 cells after 48 hr by neutral red assay. It counts as functional, cell-based.
`CC1=NC2C(=C3CCCN3C2(O)N2CCOCC2)C(=O)N1` (stereo not drawn): the IC50 – broadly, the concentration that inhibits the measured activity by half – was found to be 36 µM.

Take `O=C1NC(c2ccccc2)=NC2C1=C1CCCN1C2(O)N1CCOCC1` (stereo not drawn): the concentration for half-maximal inhibition (IC50) was 16 µM.

Regarding `CC(=O)CC(=O)NC1C(C#N)=C2CCCN2C1(O)N1CCOCC1` (stereo not drawn), the IC50 came out at 22 µM.

The compound `CC(=O)C1=C(N)C2=C3CCCN3C(O)(N3CCOCC3)C2NC1=O` (stereo not drawn) yielded an IC50 of 29 µM.

In turn, `O=C1NC=NC2C1=C1CCCN1C2(O)N1CCOCC1` (stereo not drawn) displayed an IC50 of 30 µM.

Compound `CCOC=NC1C(C#N)=C2CCCN2C1(O)N1CCOCC1` (stereo not drawn) showed an IC50 of 41 µM.

As for `N#CC1=C2CCCN2C(O)(N2CCOCC2)C1/N=C/NNC(=O)c1ccncc1` (stereo not drawn), the IC50 was found to be 29 µM.

Regarding `N#CC1=C2CCCN2C(O)(N2CCOCC2)C1/N=C/NNC(=O)c1ccccc1` (stereo not drawn), the concentration for half-maximal inhibition (IC50) came out at 18 µM.

The compound `O=C1NC(NNC(=O)c2ccncc2)=NC2C1=C1CCCN1C2(O)N1CCOCC1` (stereo not drawn) returned an IC50 of 20 µM.

`O=C1NC(NNC(=O)c2ccccc2)=NC2C1=C1CCCN1C2(O)N1CCOCC1` (stereo not drawn) displayed an IC50 of 19 µM.

In turn, `NC1=NC=NC2C1=C1CCCN1C2(O)N1CCOCC1` (stereo not drawn) had an IC50 of 35 µM.

In turn, `CC(=O)NC1=NC=NC2C1=C1CCCN1C2(O)N1CCOCC1` (stereo not drawn) displayed a concentration for half-maximal inhibition (IC50) of 29 µM.

Take `O=C(NC1=NC=NC2C1=C1CCCN1C2(O)N1CCOCC1)c1ccccc1` (stereo not drawn): the IC50 was found to be 21 µM.

Take `O=C(CCl)NC1=NC=NC2C1=C1CCCN1C2(O)N1CCOCC1` (stereo not drawn): the IC50 came to 23 µM.

As to `CCOC(=O)NC1=NC=NC2C1=C1CCCN1C2(O)N1CCOCC1` (stereo not drawn), the IC50 amounted to 25 µM.

The compound `N#CC1=C2CCCN2C(O)(N2CCOCC2)C1/N=C/N` (stereo not drawn) gave an IC50 of 26 µM.

`CC(=O)C/C(C)=N/C1C(C#N)=C2CCCN2C1(O)N1CCOCC1` (stereo not drawn) displayed an IC50 of 42 µM.

`C/C(CC(=O)c1ccccc1)=N\C1C(C#N)=C2CCCN2C1(O)N1CCOCC1` (stereo not drawn) had an IC50 of 28 µM.

Turning to `CC(=O)C1=C(N)C2=C3CCCN3C(O)(N3CCOCC3)C2N=C1C` (stereo not drawn), the IC50 was 38 µM.

The compound `N=C1C2=C3CCCN3C(O)(N3CCOCC3)C2NC(=O)N1c1ccccc1` (stereo not drawn) yielded an IC50 of 18 µM.

Compound `N=C1C2=C3CCCN3C(O)(N3CCOCC3)C2NC(=O)N1c1ccc(Cl)cc1` (stereo not drawn) displayed an IC50 of 37 µM.

`CC(=O)NC1C(C#N)=C2CCCN2C1(O)N1CCOCC1` (stereo not drawn): the IC50 was determined as 29 µM.

The compound `N#CC1=C2CCCN2C(O)(N2CCOCC2)C1NC(=O)c1ccccc1` (stereo not drawn) had an IC50 of 34 µM.

Compound `N#CC1=C2CCCN2C(O)(N2CCOCC2)C1NC(=O)CCl` (stereo not drawn) returned an IC50 of 23 µM.

On to `CCOC(=O)NC1C(C#N)=C2CCCN2C1(O)N1CCOCC1` (stereo not drawn), for which the 50% inhibitory concentration (IC50) turned out to be 27 µM.

`N#CC1=C2CCCN2C(O)(N2CCOCC2)C1N` (stereo not drawn) came in with an IC50 of 35 µM.

Compound `N#CC1=C2CCCN2C(O)(N2CCOCC2)C1/N=C/c1ccc(Cl)cc1` (stereo not drawn) registered a half-inhibitory concentration (IC50) of 45 µM.

For the compound `N#CC1=C2CCCN2C(O)(N2CCOCC2)C1/N=C/c1ccc([N+](=O)[O-])cc1` (stereo not drawn), the IC50 came to 19 µM.

Regarding `COc1ccc(/C=N/C2C(C#N)=C3CCCN3C2(O)N2CCOCC2)cc1` (stereo not drawn), the IC50 amounted to 16 µM.

Take `CN(C)c1ccc(/C=N/C2C(C#N)=C3CCCN3C2(O)N2CCOCC2)cc1` (stereo not drawn): the IC50 stood at 37 µM.

In turn, `N#CC1=C2CCCN2C(O)(N2CCOCC2)C1N1C(=O)CSC1c1ccc(Cl)cc1` (stereo not drawn) displayed an IC50 of 18 µM.

`N#CC1=C2CCCN2C(O)(N2CCOCC2)C1N1C(=O)CSC1c1ccc([N+](=O)[O-])cc1` (stereo not drawn) came in with a half-maximal inhibitory concentration (IC50) of 55 µM.

In the case of `COc1ccc(C2SCC(=O)N2C2C(C#N)=C3CCCN3C2(O)N2CCOCC2)cc1` (stereo not drawn), the IC50 was 35 µM.

On to `CN(C)c1ccc(C2SCC(=O)N2C2C(C#N)=C3CCCN3C2(O)N2CCOCC2)cc1` (stereo not drawn), for which the IC50 stood at 19 µM.

For `CCNC(=S)NC1C(C#N)=C2CCCN2C1(O)N1CCOCC1` (stereo not drawn), the IC50 worked out at 37 µM.

For `N#CC1=C2CCCN2C(O)(N2CCOCC2)C1NC(=O)Nc1ccccc1` (stereo not drawn), the IC50 turned out to be 44 µM.

`CCN1C(=N)C2=C3CCCN3C(O)(N3CCOCC3)C2NC1=S` (stereo not drawn) registered an IC50 of 34 µM.

Consider `COc1cccc2c1C(=O)c1c(O)c3c(c(O)c1C2=O)C[C@@](O)(C(=O)CO)C[C@@H]3O[C@H]1C[C@H](N)[C@H](O)[C@H](C)O1` [DOXORUBICIN], for which the IC50 was found to be 63 µM.
